The values below come from patent US11530186B2, “Inhibitors for the β-catenin / T-cell factor protein-protein interaction” (H. LEE MOFFITT CANCER CENTER AND RESEARCH INSTITUTE, INC., priority 2018, dated 2022).

Like-named read-outs stand apart in the source and are kept apart here.

A word on the Ki: it is the dissociation constant of the complex between target and ligand, obtained from inhibition or displacement.

This experiment has as its target T1, β-catenin/Tcf protein-protein interaction (Homo sapiens, UniProt P35222).
T1 construct: Wild-type β-catenin (residues 138-781) were cloned into a pET-28b vector; 6×histidine (C); made in house; host or cells: E. coli BL21 DE3
T1 sequence (P35222 138-781): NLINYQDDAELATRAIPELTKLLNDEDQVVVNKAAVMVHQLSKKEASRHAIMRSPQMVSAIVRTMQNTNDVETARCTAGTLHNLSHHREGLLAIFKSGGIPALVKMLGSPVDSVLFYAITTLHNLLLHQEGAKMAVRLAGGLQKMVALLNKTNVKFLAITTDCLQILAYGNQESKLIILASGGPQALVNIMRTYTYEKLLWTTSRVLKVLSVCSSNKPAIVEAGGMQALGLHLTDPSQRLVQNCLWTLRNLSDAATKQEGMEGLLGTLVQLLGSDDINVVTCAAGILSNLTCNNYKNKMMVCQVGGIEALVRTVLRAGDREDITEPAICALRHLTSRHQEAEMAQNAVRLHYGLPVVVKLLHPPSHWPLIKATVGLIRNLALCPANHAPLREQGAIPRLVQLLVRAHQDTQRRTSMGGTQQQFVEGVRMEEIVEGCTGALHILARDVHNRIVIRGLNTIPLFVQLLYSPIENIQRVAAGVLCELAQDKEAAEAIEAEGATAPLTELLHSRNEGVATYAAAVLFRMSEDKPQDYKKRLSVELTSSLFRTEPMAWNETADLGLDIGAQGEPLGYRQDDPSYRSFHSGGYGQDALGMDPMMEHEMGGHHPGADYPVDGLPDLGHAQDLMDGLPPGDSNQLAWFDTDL
The experiment can be described thus: FP competitive inhibition assay. The experiment is classed as binding. As for the experimental part: Protein Expression and Purification. Wild-type β-catenin (residues 138-781) were cloned into a pET-28b vector carrying a C-terminal 6×histidine (Novagen) and transformed into E. coli BL21 DE3 (Novagen). Cells were cultured in LB medium with 30 μg/mL kanamycin until the OD600 was approximately 0.8, and then protein expression was induced with 400 μM of IPTG at 20° C. overnight. Cells were lysed by sonication. The proteins were purified by Ni-NTA affinity chromatography (30210, Qiagen) and dialyzed against a buffer containing 20 mM of Tris (pH 8.8), 100 mM NaCl, 10% glycerol, and 3 mM DTT. The purity of β-catenin was set to >95% as determined by SDS-PAGE gel analysis. Native non-denaturing gel electrophoresis experiment and the thermal-shift assay on an iCycler iQ Real Time Detection System (Bio-Rad) were performed for each purified protein. In the thermal shift assay, protein unfolding was evaluated through measuring the fluorescence changes of fluorescent dye Sypro Orange with purified β-catenin proteins. A temperature increment of 1° C./min was applied to monitor protein stability and detect protein aggregation. CD spectra were measured on a J-815 spectropolarimeter (Jasco). All spectra were recorded using a 1 mm path-length quartz cell. The CD spectra were averaged over three scans, and the wavelength was scanned from 260 to 190 nm in step of 1 nm. All spectra were recorded at room temperature, and the baseline was corrected by subtracting the CD spectra of a blank control containing all of the substances except protein. Samples were prepared at a concentration around 1-5 μM in a buffer of 10 mM potassium phosphate and 100 mM potassium fluoride at pH 7.0 to ensure that the transmission of light through the sample was not restricted. All proteins were stable, and no aggregation was observed under storage or assay conditions. Proteins were aliquoted and stored at −80° C. C-terminally fluorescein-labeled human Tcf4 (residues 7-51) was synthesized and HPLC purified with purity >95%. The structures were validated by LC/MS (liquid chromatography/mass spectrometry).
FP Assays. The procedures for the FP competitive inhibition assays have been described previously (Zhang, M.; Huang, Z.; Yu, B.; Ji, H. New homogeneous high-throughput assays for inhibitors of β-catenin/Tcf protein-protein interactions Anal. Biochem. 2012, 424, 57-63; Zhang, M.; Catrow, J. L.; Ji, H. High-throughput selectivity assays for small-molecule inhibitors of β-catenin/T-cell factor protein-protein interactions. ACS Med. Chem. Lett. 2013, 4, 306-311). Briefly, all of the tested compounds were prepared as 10 mM DMSO stocks. In the primary screen, the concentrations of the compounds and DMSO were set to 50 μM and 1% (v/v). Only the compounds which FP signal decreases were greater than 50% in the single-point β-catenin/Tcf assay were evaluated by counter screen. […] In the FP competitive inhibition assay, 10 nM human β-catenin and 2.5 nM of C-terminally fluorescein-labeled human Tcf4 were incubated in an assay buffer of 137 mM NaCl, 2.7 mM KCl, 10 mM Na2HPO4, 2 mM KH2PO4, 100 μg/mL of bovine γ-globulin, and 0.01% Triton-X100 for 15 min at 4° C. Bovine γ-globulin and Triton-X100 were included in the assay buffer to decrease the likelihood of compound acting by aggregate formation. Different concentrations of the tested compounds in the assay buffer were added to each test plate to make a final volume of 100 μL. Each assay plate was covered black and gently mixed on an orbital shaker at 4° C. for 1.5 h to reach equilibrium before the polarization values were read. The IC50 value was determined by nonlinear least-square analysis of GraphPad Prism 5.0. The Ki values were derived (Nikolovska-Coleska, Z.; Wang, R.; Fang, X.; Pan, H.; Tomita, Y.; Li, P.; Roller, P. P.; Krajewski, K.; Saito, N. G.; Stuckey, J. A.; Wang, S. Development and optimization of a binding assay for the XIAP BIR3 domain using fluorescence polarization. Anal. Biochem. 2004, 332, 261-273). […]

Where [1] appears, read: Assay 1, mean ± SD (n = 3), read-out: Ki ± SD, Assay 1.
Setting [2] is: Assay 2, mean ± SD (n = 3), read-out: Ki ± SD, Assay 2.

As for `O=C(O)c1cccc(CCc2nn[nH]n2)c1` [Compound 1, 3-(2-(2H-tetrazol-5-yl)ethyl)benzoic acid], the Ki under setting [1] was 990 ± 36 µM. For the molecule `Cc1cn(CCc2nn[nH]n2)c2ccccc12` [Compound 2, 1-(2-(2H-tetrazol-5-yl)ethyl)-3-methyl-1H-indole], the Ki runs as follows: under setting [1], 348 ± 1.3 µM; under setting [2], 780 ± 100 µM.

As to `Cc1c(C)n(CCc2nn[nH]n2)c2ccccc12` [Compound 3, 1-(2-(2H-tetrazol-5-yl)ethyl)-2,3-dimethyl-1H-indole], the inhibition constant (Ki) under setting [1] amounted to 250 ± 1.2 µM. On the same count and under the same terms, the result for `O=C(O)c1ccc2c(ccn2CCc2nn[nH]n2)c1` [Compound 4, 1-(2-(2H-tetrazol-5-yl)ethyl)-1H-indole-5-carboxylic acid] reads 550 ± 56 µM; that for `O=C(O)c1ccc2c(c1)c(CCc1ccccc1)cn2CCc1nn[nH]n1` [Compound 5, 1-(2-(2H-tetrazol-5-yl)ethyl)-3-phenethyl-1H-indole-5-carboxylic acid], 62 ± 12 µM. Turning to `O=C(O)c1ccc2c(c1)c(CCc1ccc(Cl)cc1)cn2CCc1nn[nH]n1` [Compound 6, 1-(2-(2H-tetrazol-5-yl)ethyl)-3-(4-chlorophenethyl)-1H-indole-5-carboxylic acid], the inhibition constant Ki by setting is: under setting [1], 26 ± 2.3 µM; under setting [2], 19 ± 2.5 µM. Regarding `Cc1ccc(CCc2cn(CCc3nn[nH]n3)c3ccc(C(=O)O)cc23)cc1` [Compound 7, 1-(2-(2H-tetrazol-5-yl)ethyl)-3-(4-methylphenethyl)-1H-indole-5-carboxylic acid], the Ki under setting [1] was 27 ± 4 µM. The same measure, in the same setting: the figure for `COc1ccc(CCc2cn(CCc3nn[nH]n3)c3ccc(C(=O)O)cc23)cc1` [Compound 8] is 78 ± 10 µM; for `O=C(O)c1ccc2c(c1)c(CCc1ccc(C(F)(F)F)cc1)cn2CCc1nn[nH]n1` [Compound 9, 1-(2-(2H-tetrazol-5-yl)ethyl)-3-(4-(trifluoromethyl)phenethyl)-1H-indole-5-carboxylic acid] it is 31 ± 5.9 µM; for `O=C(O)c1ccc2c(c1)c(CCc1ccc(OC(F)(F)F)cc1)cn2CCc1nn[nH]n1` [Compound 10, 1-(2-(2H-tetrazol-5-yl)ethyl)-3-(4-(trifluoromethoxy)phenethyl)-1H-indole-5-carboxylic acid] it is 22 ± 3.1 µM. With `O=C(O)c1ccc2c(c1)c(CCc1cccc(Cl)c1)cn2CCc1nn[nH]n1` [Compound 11, 1-(2-(2H-tetrazol-5-yl)ethyl)-3-(3-chlorophenethyl)-1H-indole-5-carboxylic acid], the inhibitory constant (Ki) turned out to be 27 ± 4 µM under setting [1] and 12 ± 2.2 µM under setting [2]. In the same order, the values of `O=C(O)c1ccc2c(c1)c(CCc1ccc(Cl)c(Cl)c1)cn2CCc1nn[nH]n1` [Compound 12, 1-(2-(2H-tetrazol-5-yl)ethyl)-3-(3,4-dichlorophenethyl)-1H-indole-5-carboxylic acid] are 6.6 ± 0.44 µM and 41 ± 1.5 µM. Consider `O=C(O)c1ccc2c(c1)c(CCc1ccc3ccccc3c1)cn2CCc1nn[nH]n1` [Compound 13, 1-(2-(2H-tetrazol-5-yl)ethyl)-3-(2-(naphthalen-2-yl)ethyl)-1H-indole-5-carboxylic acid], for which the Ki under setting [1] was 6.5 ± 1 µM.

For `O=C(O)c1ccc2c(c1)c(CCc1cccc3ccccc13)cn2CCc1nn[nH]n1` [Compound 14, 1-(2-(2H-tetrazol-5-yl)ethyl)-3-(2-(naphthalen-1-yl)ethyl)-1H-indole-5-carboxylic acid], the Ki came out at 4.6 ± 0.36 µM under setting [1] and 3.5 ± 0.71 µM under setting [2]. The like results for `O=C(O)c1ccc2c(c1)c(CCc1nccs1)cn2CCc1nn[nH]n1` [Compound 15, 1-(2-(2H-tetrazol-5-yl)ethyl)-3-(2-(thiazol-2-yl)ethyl)-1H-indole-5-carboxylic acid] were, in that order, 29 ± 1.5 µM and greater than 51 µM.

In the case of `O=C(O)c1ccc2c(c1)c(CCc1ccncc1)cn2CCc1nn[nH]n1` [Compound 16, 1-(2-(2H-tetrazol-5-yl)ethyl)-3-(2-(pyridin-4-yl)ethyl)-1H-indole-5-carboxylic acid], the Ki under setting [1] worked out at 18 ± 1.6 µM and the Ki under setting [2] was found to be 18 ± 0.67 µM. `Cc1ccc(CCc2cn(CCc3nn[nH]n3)c3ccc(C(=O)O)cc23)nc1` [Compound 17, 1-(2-(2H-tetrazol-5-yl)ethyl)-3-(2-(5-methylpyridin-2-yl)ethyl)-1H-indole-5-carboxylic acid]: the Ki under setting [1] was 32 ± 3.9 µM. In the case of `O=C(O)c1ccc2c(c1)c(CCc1ccc(-c3ccccc3)cc1)cn2CCc1nn[nH]n1` [Compound 18, 1-(2-(2H-tetrazol-5-yl)ethyl)-3-(2-([1,1′-biphenyl]-4-yl)ethyl)-1H-indole-5-carboxylic acid], the inhibition constant (Ki) was determined as 1.1 ± 0.12 µM under setting [1] and 1.6 ± 0.23 µM under setting [2]. On to `O=C(O)c1ccc2c(c1)c(CCc1ccc(N3CCOCC3)cc1)cn2CCc1nn[nH]n1` [Compound 19, 1-(2-(2H-tetrazol-5-yl)ethyl)-3-(4-morpholinophenethyl)-1H-indole-5-carboxylic acid], for which the inhibition constant Ki under setting [1] was greater than 51 µM.

As to `O=C(O)c1ccc2c(c1)c(CCC1CCOCC1)cn2CCc1nn[nH]n1` [Compound 21, 1-(2-(2H-tetrazol-5-yl)ethyl)-3-(2-(tetrahydro-2H-pyran-4-yl)ethyl)-1H-indole-5-carboxylic acid], the Ki is 6.6 ± 0.28 µM under setting [1]; 7.6 ± 0.65 µM under setting [2]; 10 ± 0.95 µM (Assay 3, mean ± SD (n = 3), read-out: Ki ± SD, Assay 3); 5.7 ± 1.1 µM (Assay 4, mean ± SD (n = 3), read-out: Ki ± SD, Assay 4). On to `O=C(O)c1ccc2c(c1)c(CCc1ccc3c(c1)OCCO3)cn2CCc1nn[nH]n1` [Compound 22, 1-(2-(2H-tetrazol-5-yl)ethyl)-3-(2-(2,3-dihydrobenzo[b][1,4]dioxin-6-yl)ethyl)-1H-indole-5-carboxylic acid], for which, under setting [1], the Ki was 35 ± 1.2 µM. The same measure, in the same setting: the figure for `O=C(O)CCn1cc(CCc2ccc(Cl)cc2)c2cc(C(=O)O)ccc21` [Compound 23, 1-(2-carboxyethyl)-3-(4-chlorophenethyl)-1H-indole-5-carboxylic acid] is 94 ± 9.6 µM; for `Cc1ccc(CCc2cn(CCC(=O)O)c3ccc(C(=O)O)cc23)cc1` [Compound 24, 1-(2-carboxyethyl)-3-(4-methylphenethyl)-1H-indole-5-carboxylic acid] it is 77 ± 4.5 µM.
